Laboratory results reported in EP0615158A1, “A silver halide photographic light-sensitive material” (KONICA CORPORATION, priority 1993, dated 1994).

Conditions: method of Shin Jikken Kagaku Koza, Kihon Sosa 1

| Structure (SMILES) | solubility in water at 25°C [% by weight] |
| --- | --- |
| C=C(C)C(=O)OCCCC [butyl methacrylate] | 0.03 |
| C=Cc1ccccc1 [styrene] | 0.03 |
